This is an account of results in ChEMBL document CHEMBL1146991, “The synthesis of highly potent, selective, and water-soluble agonists at the human adenosine A3 receptor” (Bioorg Med Chem Lett, 2006).

≈ marks a conversion by molar mass, not a printed value.

Data set [1] concerns the target T1, Adenosine receptor A3 (Homo sapiens, UniProt P0DMS8).
T1 sequence (P0DMS8 whole entry): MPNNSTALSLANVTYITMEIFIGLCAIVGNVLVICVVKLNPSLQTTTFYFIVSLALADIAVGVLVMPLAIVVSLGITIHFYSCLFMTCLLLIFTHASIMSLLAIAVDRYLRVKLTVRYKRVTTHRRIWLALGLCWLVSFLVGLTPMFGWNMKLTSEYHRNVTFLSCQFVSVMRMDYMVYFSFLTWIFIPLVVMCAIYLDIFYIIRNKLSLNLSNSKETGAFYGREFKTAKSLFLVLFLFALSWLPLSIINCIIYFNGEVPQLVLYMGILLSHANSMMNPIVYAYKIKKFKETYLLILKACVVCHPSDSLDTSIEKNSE
The data set is described as follows: Binding affinity to human adenosine A3 receptor.

Data set [2] deals with Adenosine receptors; A1 & A3 (Homo sapiens) (UniProt P30542+P0DMS8). The data set is described as follows: Selectivity for human adenosine A3 receptor over human adenosine A1 receptor. In kind it is protein assay.
Adenosine receptors; A1 & A3 (Homo sapiens), sequence (P30542 whole entry, looked up, one chain of several): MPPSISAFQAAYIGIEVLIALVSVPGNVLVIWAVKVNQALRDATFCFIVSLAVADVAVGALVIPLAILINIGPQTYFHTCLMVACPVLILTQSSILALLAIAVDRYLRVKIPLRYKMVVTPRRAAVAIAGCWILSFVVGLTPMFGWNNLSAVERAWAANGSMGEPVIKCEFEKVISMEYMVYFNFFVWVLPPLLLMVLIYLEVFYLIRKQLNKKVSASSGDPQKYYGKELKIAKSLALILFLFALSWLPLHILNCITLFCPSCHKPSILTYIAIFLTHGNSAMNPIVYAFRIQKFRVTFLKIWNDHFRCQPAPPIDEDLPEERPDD
For data set [3], the target named is Adenosine receptor A2a (Homo sapiens) (UniProt P29274). Briefly: Increase of cAMP production in HEK293 cell expressing human adenosine A2A receptor at 3 uM. It counts as functional, cell-based.
Adenosine receptor A2a (Homo sapiens), sequence (P29274 whole entry): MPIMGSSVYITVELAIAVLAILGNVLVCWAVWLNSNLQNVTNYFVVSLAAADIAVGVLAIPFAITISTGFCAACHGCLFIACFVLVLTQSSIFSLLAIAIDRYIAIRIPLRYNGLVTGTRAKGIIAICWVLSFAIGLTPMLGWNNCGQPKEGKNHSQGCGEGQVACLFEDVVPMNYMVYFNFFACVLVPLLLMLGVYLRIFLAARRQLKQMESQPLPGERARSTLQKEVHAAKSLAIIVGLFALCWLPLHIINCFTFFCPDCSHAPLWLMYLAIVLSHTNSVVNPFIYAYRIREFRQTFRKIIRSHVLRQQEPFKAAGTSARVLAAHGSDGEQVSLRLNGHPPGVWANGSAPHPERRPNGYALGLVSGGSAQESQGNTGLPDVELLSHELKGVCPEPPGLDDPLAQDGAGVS
The target of data set [4] is T2, Adenosine receptor A2b (Homo sapiens) (UniProt P29275).
T2 sequence (whole entry): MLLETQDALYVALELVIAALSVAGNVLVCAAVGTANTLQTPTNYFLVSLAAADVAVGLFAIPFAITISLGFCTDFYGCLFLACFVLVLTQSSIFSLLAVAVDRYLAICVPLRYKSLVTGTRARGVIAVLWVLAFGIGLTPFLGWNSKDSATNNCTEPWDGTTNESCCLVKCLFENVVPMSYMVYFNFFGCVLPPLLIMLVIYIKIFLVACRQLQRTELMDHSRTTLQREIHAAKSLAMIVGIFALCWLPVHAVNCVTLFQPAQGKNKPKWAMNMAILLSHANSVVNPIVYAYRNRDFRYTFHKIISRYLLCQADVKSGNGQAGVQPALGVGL
Briefly: Increase of cAMP production in HEK293 cell expressing human adenosine A2B receptor at 3 uM. It counts as functional, cell-based. Background: cAMP levels reflect the balance of adenylyl cyclase and phosphodiesterase activity.

The target in data set [5] is T1, Adenosine receptor A3. The data set is described as follows: Inhibition of isoproterenol-induced increase of cAMP in HEK293 cell expressing human adenosine A3 receptor. In kind it is functional, cell-based.
Data set [6] in a line: Solubility in citrate buffer at pH 4. In kind it is physicochemical.

Regarding `CNC(=O)[C@H]1O[C@@H](n2cnc3c(NCc4cc(Cl)ccc4OCC(=O)O)ncnc32)[C@H](O)[C@@H]1N`, the inhibitory constant (Ki) – broadly, a dissociation constant, usually derived from enzyme kinetics or from competition with a known ligand – on Adenosine receptor A3 [1] stood at 130 nM. In addition, in data set [2], the Selectivity ratio worked out at 222.
Take `CNC(=O)[C@H]1O[C@@H](n2cnc3c(NCc4cc(Cl)cc(Cl)c4)ncnc32)[C@H](O)[C@@H]1N`: the Ki on Adenosine receptor A3 [1] was found to be 25 nM. The Selectivity ratio in data set [2] amounted to 148.
On Adenosine receptor A3 [1], `CNC(=O)[C@H]1O[C@@H](n2cnc3c(NCc4cc(Cl)ccc4OCC(=O)N4CCC(N(C)C)CC4)ncnc32)[C@H](O)[C@@H]1N` gave a Ki of 9.1 nM. Besides, the Selectivity ratio in data set [2] was found to be 456.
At Adenosine receptor A3 [1], `CNC(=O)[C@H]1O[C@@H](n2cnc3c(NCc4cc(Cl)ccc4OCC(=O)N4CCNCC4)ncnc32)[C@H](O)[C@@H]1N` had a Ki of 9.4 nM. In addition, the Selectivity ratio in data set [2] is 445. Also, the figures for the Activity in data set [3] and in data set [4] were 16% and 1%, respectively. On Adenosine receptor A3 [5], the midpoint of the response, the EC50, lay at 8.1 nM. In addition, the solubility (as a rule, the dissolved amount per volume that the medium holds) in data set [6] was 50 mg/mL (≈ 89.3 mM).
On to `CNC(=O)[C@H]1O[C@@H](n2cnc3c(NC)ncnc32)C[C@@H]1O`, for which, on Adenosine receptor A3 [1], the affinity corresponds to a Ki of 87 nM. For the same molecule, in data set [2], the Selectivity ratio came to 12.6.
On Adenosine receptor A3 [1], `CNC(=O)[C@H]1O[C@@H](n2cnc3c(NCc4cc(Cl)ccc4OCc4ccccc4)ncnc32)[C@H](O)[C@@H]1N` yielded an inhibition constant (Ki) of 16 nM. The Selectivity ratio in data set [2] stood at 691.
Molecule `CCNC(=O)N[C@H]1[C@@H](O)[C@H](n2cnc3c(NC)ncnc32)O[C@@H]1C(=O)NC` displayed a Ki on Adenosine receptor A3 [1] of over 3000 nM.
Take `CNC(=O)[C@H]1O[C@@H](n2cnc3c(NC)ncnc32)[C@H](O)[C@@H]1N`: in data set [2], the Selectivity ratio was 194.
Take `CNC(=O)[C@H]1O[C@@H](n2cnc3c(NCc4cc(Cl)ccc4OCC(=O)N4CCOCC4)ncnc32)[C@H](O)[C@@H]1N`: the affinity at Adenosine receptor A3 [1], expressed as Ki, was 20 nM. In addition, the Selectivity ratio in data set [2] stood at 700.
The molecule `CNC(=O)[C@H]1O[C@@H](n2cnc3c(NCc4cc(Cl)ccc4OC)ncnc32)[C@H](O)[C@@H]1N` had a Ki at Adenosine receptor A3 [1] of 15 nM. Moreover, the Selectivity ratio in data set [2] is 317.
Take `CNC(=O)[C@H]1O[C@@H](n2cnc3c(NC)ncnc32)[C@H](O)[C@@H]1O`: the Selectivity ratio in data set [2] turned out to be 13.
On Adenosine receptor A3 [1], `CNC(=O)[C@H]1O[C@@H](n2cnc3c(NCc4cc(OC)ccc4OC)ncnc32)[C@H](O)[C@@H]1N` gave an inhibition constant Ki of 160 nM. Moreover, the Selectivity ratio in data set [2] was 294.
For `CNC(=O)[C@@H]1C[C@@H](O)[C@H](n2cnc3c(NC)ncnc32)O1`, on Adenosine receptor A3 [1], affinity was put at a Ki of 59 nM. For the same molecule, the Selectivity ratio in data set [2] was determined as 6.
With `CNC(=O)[C@H]1O[C@@H](n2cnc3c(NCc4cc(Cl)ccc4OCC(=O)N4CCCCC4)ncnc32)[C@H](O)[C@@H]1N`, the Ki on Adenosine receptor A3 [1] is 18 nM. Moreover, in data set [2], the Selectivity ratio was found to be 720.
`CNC(=O)[C@H]1O[C@@H](n2cnc3c(NC)ncnc32)[C@H](O)[C@@H]1NC(C)=O` yielded a Ki at Adenosine receptor A3 [1] of over 3000 nM.
At Adenosine receptor A3 [1], `CNC(=O)[C@H]1O[C@@H](n2cnc3c(NCc4cc(OC)ccc4OC)ncnc32)[C@H](O)[C@@H]1O` showed an inhibition constant (Ki) of 3.9 nM. In addition, the Selectivity ratio in data set [2] is 45.
For `CNC(=O)[C@H]1O[C@@H](n2cnc3c(NCc4cc(Cl)ccc4OCC(N)=O)ncnc32)[C@H](O)[C@@H]1N`, the affinity on Adenosine receptor A3 [1], expressed as Ki, was 6.8 nM. Besides, in data set [2], the Selectivity ratio turned out to be 526.
As to `CNC(=O)[C@H]1O[C@@H](n2cnc3c(NC)ncnc32)[C@H](O)[C@@H]1NS(C)(=O)=O`, the Ki at Adenosine receptor A3 [1] is over 3000 nM.
Molecule `CNC(=O)[C@H]1O[C@@H](n2cnc3c(NCc4cc(Cl)cc(Cl)c4)ncnc32)[C@H](O)[C@@H]1O` gave a Ki at Adenosine receptor A3 [1] of 2.5 nM. Also, the Selectivity ratio in data set [2] was found to be 9.4.
